From PMC4028696, “Development of a screen to identify selective small molecules active against patient-derived metastatic and chemoresistant breast cancer cells” (Breast Cancer Research : BCR, 2013)

Assays:
Format in all cases: cell-based, human
[1] = system: PE904557a, PE900642a and PE1100025 cells; assay: Live/dead assay, three-dimensional Matrigel culture; details: 30 or 60 μM, five days
Procedure: For the three dimensional culture experiments, PE904557a, PE900642a and PE11000025 cells were seeded in a 24-well ultra low adhesion plate (Costar) at approximately 2 × 10^6 cells/mL in mammary epithelial cell growth medium (MEGM) complete media (Lonza, Basel Switzerland) and were cultured overnight. The resulting aggregates were separated from single cells by differential centrifugation. Next, 20 μL of growth factor reduced Matrigel (BD Biosciences) was added to each well of a black walled clear bottom 24-well plate (Greiner Bio-one) and was allowed to solidify to form a base layer. The aggregates were then suspended in Matrigel on ice and approximately 300 aggregates in 40 μL were added to each well. After the Matrigel solidified, modified M87 media was added to each well and the cells were cultured overnight. The media were subsequently aspirated and the cells were treated with 30 or 60 μM C-6 or the corresponding 0.06% (v/v) DMSO vehicle control. After culturing for five days, the viability and cytotoxicity were determined utilizing the Live/dead assay (Life Technologies) in the same manner as described above. Multiple Z-planes of the organoids were subsequently imaged utilizing an IX81 microscope (Olympus) running Slide Book 5.0 software (Intelligent Imaging Innovations).

MCF-10A cells = assay: AAF-Glo released protease (cell death) assay; details: 30 μM, 24 to 120 hours, vs DMSO
Procedure: (§1) Adherent cells were seeded in two identical white 96-well plates (Costar) in 100 μL of their respective media at varying densities to achieve 80% to 90% confluency at the end of the assay. After 24 hours, the media were aspirated and the cells were treated with 30 μM C-6 or a matched 0.03% (v/v) DMSO vehicle control in the corresponding media containing 2% FBS. For suspension cultures, cells were first seeded in 75 μL of media. At the start of treatment, 25 μL of a 4× concentration of C-6 or a matched (v/v) DMSO vehicle control was added to each well such that the final volume in each well was 100 μL and the final concentration of C-6 was 30 μM. For the caspase activity assays, additional wells were treated with 1 μM staurosporine. After culturing for the appropriate amount of time, either the AAF-Glo or Caspase-Glo assays (Promega, Madison, WI, USA) were performed on one 96-well plate according to the manufacturer's instructions. For the Caspase-Glo assay, cell viability was determined for the additional 96-well plate utilizing the ATPlite 1step assay system (Perkin Elmer) according to the manufacturer's instructions. For the AAF-Glo assay, the total protein in each well of the additional plate was measured using the BCA protein assay kit (Peirce, Rockford, IL, USA). Luminescence measurements were acquired utilizing a Perkin Elmer 2104 EnVision plate reader. Raw luminescence values for each assay were normalized to the DMSO vehicle control wells. The values for the Caspase-Glo or AAF-Glo assays were then normalized to the ATPlite values or total protein, respectively, in order to account for differences in cell numbers and were plotted as an average ± SD of four wells per condition.

MCF-7 cells = assay: AAF-Glo released protease (cell death) assay; details: MCF-7, 30 μM, 24 to 120 hours, vs DMSO
Procedure: as §1

MDA-MB-231 cells = assay: AAF-Glo released protease (cell death) assay; details: MDA-MB-231, 30 μM, 24 to 120 hours
Procedure: as §1

[2] = system: PE cells from three different patients; assay: AAF-Glo released protease (cell death) assay; details: 30 μM, 24 to 120 hours, vs DMSO
Procedure: as §1

PE1008032 cells = assay: AAF-Glo released protease (cell death) assay; details: PE1008032, 30 μM, 24 to 120 hours
Procedure: as §1

LC3A/B-II = assay: Western blot for LC3A/B-II (autophagy); details: T47D cells, 30 μM, 48 hours
Procedure: Cells were lysed in cold radioimmunoprecipitation assay buffer (50 mM Tris HCl, 150 mM NaCl, 0.1% sodium dodecyl sulfate (SDS), 0.5% sodium deoxycholate, 1% Triton X-100, pH = 8.0) supplemented with protease inhibitor cocktail (Sigma), phosphatase inhibitor cocktail 2 (Sigma) and 1 mM dithiothreitol (DTT) (Sigma). The lysate was sonicated for 30 seconds using a 450 Sonifier (Branson Ultrasonics, Danbury, CT, USA) and was centrifuged at 14,000 RPM for five minutes at 4°C. The protein concentration was determined using the BCA protein assay kit (Peirce, Rockford, IL, USA) and the samples were boiled for five minutes with 4× SDS Laemmli buffer. Equal amounts of protein were resolved on SDS polyacrylamide gels and transferred to an Immobilon-FL PVDF membrane (EMD Millipore). Blots were blocked in Odyssey Blocking Buffer (LI-COR, Lincoln, NE, USA) for one hour at room temperature, stained with primary antibodies overnight at 4°C, washed, and stained with IR800CW or IR680 anti-mouse or rabbit secondary antibodies (LI-COR) for one hour at room temperature. Blots were imaged with the Odyssey Infrared Imaging System (LI-COR).

For `COc1cc(OC)cc(C(C)c2ccc(NC(=O)OC(C)(C)C)cc2)c1` (stereo not shown) [C-6], the “cell death in three-dimensional culture” value [1] was “able to induce cell death”, the “relative AAF-Glo activity” value (MCF-10A cells) was “did not cause an increase” and the “relative AAF-Glo activity” value (MCF-7 cells) was “significant increase”. For the same molecule, the “relative AAF-Glo activity” value (MDA-MB-231 cells) was “did not have increased AAF-Glo activity”, the “relative AAF-Glo activity” value [2] was “significant increase” and the “relative AAF-Glo activity” value (PE1008032 cells) was “did not have increased AAF-Glo activity”. For the same molecule, the LC3A/B-II levels (LC3A/B-II) was “small increase”.
